Source: patent US6800639B2, “Pharmaceutical combination for the treatment of cancer” (Shire BioChem Inc., priority 2001, dated 2004)

Assays:
[1] = system: Panc-01 Human Pancreatic Tumor Xenograft; assay: Troxacitabine ± Gemcitabine vs. Panc-01 human pancreatic tumor xenograft; conditions: for Deaths / Mice with Complete Shrinkage / Mice with Partial Shrinkage: n = 10
Description: (§1) Female nude mice weighing approximately 20 g were implanted s.c. by trocar with fragments of human tumor harvested from s.c. growing tumors in nude mice hosts. When the tumors were approximately 58mg in size (12 days following inoculation), the animals were pair-matched into treatment and control groups. Each group contained 10 mice, each of which was ear-tagged and followed individually throughout the experiment. Initial doses were given on Day 1 following pair matching. […] Gemcitabine (Eli Lilly, Lot# 4MT16M) was administered intraperitoneally at 40 mg/kg and 80 mg/kg on a q3d×4 schedule.
(§2) Mice were weighed twice weekly, and tumor measurements were taken by calipers twice weekly, starting on Day 1. These tumor measurements were converted to mg tumor weight by a well-known formula, (W^2×L)/2. The experiment was terminated when the control group tumor size reached an average of 1 gram. Upon termination, the mice were weighed, sacrificed and their tumors were excised. The tumors were weighed, and the mean tumor weight per group was calculated.
(§3) Some drugs may cause tumor shrinkage in these tumor enograft models. With these agents, the final weight of a given tumor is subtracted from its own weight at the start of treatment on Day 1. This difference, divided by the initial tumor weight, is converted to percent shrinkage. The mean percent tumor shrinkage can be calculated from data from the mice in a group that experienced tumor regressions. If the tumor completely disappears in a mouse, it is considered a complete regression or complete tumor shrinkage.

[2] = system: MiaPaCa Human Pancreatic Tumor Xenograft; assay: Troxacitabine ± Gemcitabine vs. MiaPaCa human pancreatic tumor xenograft; conditions: for # of Toxic Deaths / Mice with Complete Shrinkage / Mice with Partial Shrinkage: n 10
Description: as §1, §2, §3

CCRF-CEM cells = assay: MTT assay with CalcuSyn median-effect analysis, Troxacitabine/araC on CCRF-CEM cells; assay type: cell-based
From the text: The absorbance at 490 nm is directly proportional to the number of living cells in culture at a certain time point. […] Enz. Regulation 22, 1984, pp.27-55. […] Combinations of drugs were then generated around the IC50's of each drug to allow a constant ratio in order to determine if the combination was additive, synergistic or antagonistic. […] A CI below 1 is an indication of synergy, while a CI equal to 1 represents additivity, and a CI above 1 indicates antagonism.

[3] = Determination of maximum tolerated dose (MTD) in non-tumored mice; assay type: in vivo; conditions: i.v. qd×5 schedule
[4] = system: patients with refractory/relapsed leukemia; assay: β-L OddC alone in patients with refractory/relapsed leukemia; assay type: in vivo, human; conditions: single agent; 16 evaluable AML patients
Description: A study was conducted to investigate the activity of β-L OddC as a single agent in patients with refractory/relapsed leukemia. The study involved the treatment of patients with refractory or relapsed acute myeloid (AML) or lymphocytic (ALL) leukemia, myelodysplastic syndromes (MDS), or chronic myelogenous leukemia in blastic Phase (CML-BP). A total of 42 patients were treated in the study. As a result, a total of 39 patients were assessable for responses.

With `Nc1ccn([C@@H]2O[C@H](CO)[C@@H](O)C2(F)F)c(=O)n1` [Gemcitabine, reference compound] the “% Tumor Growth Inhibition” value ([1]; 40 mg/kg i.p., q3d × 4) was 49.8%, the “Final Tumor Wt. (Mean ± SEM)” value ([1]; 40 mg/kg i.p., q3d × 4) was 457.8 ± 113.9 mg and the Deaths ([1]; 40 mg/kg i.p., q3d × 4) was 0. For the same compound, the “Mice with Complete Shrinkage” value ([1]; 40 mg/kg i.p., q3d × 4) was 0, the “Mice with Partial Shrinkage” value ([1]; 40 mg/kg i.p., q3d × 4) was 0 and the “% Tumor Growth Inhibition” value ([1]; 80 mg/kg i.p., q3d × 4) was 74.3%. The “Final Tumor Wt. (Mean ± SEM)” value ([1]; 80 mg/kg i.p., q3d × 4) was 262.2 ± 67.7 mg, the Deaths ([1]; 80 mg/kg i.p., q3d × 4) was 0 and the “Mice with Complete Shrinkage” value ([1]; 80 mg/kg i.p., q3d × 4) was 0. The “Mice with Partial Shrinkage” value ([1]; 80 mg/kg i.p., q3d × 4) was 0, the “% Tumor Growth Inhibition” value ([2]; 40 mg/kg i.p., q3d × 4) was 37.3% and the “Final Tumor Wt. (Mean ± SEM)” value ([2]; 40 mg/kg i.p., q3d × 4) was 733.0 ± 98.7 mg. The “# of Toxic Deaths” value ([2]; 40 mg/kg i.p., q3d × 4) was 0, the “Mice with Complete Shrinkage” value ([2]; 40 mg/kg i.p., q3d × 4) was 0 and the “Mice with Partial Shrinkage” value ([2]; 40 mg/kg i.p., q3d × 4) was 0. The “% Tumor Growth Inhibition” value ([2]; 80 mg/kg i.p., q3d × 4) was 53.6%, the “Final Tumor Wt. (Mean ± SEM)” value ([2]; 80 mg/kg i.p., q3d × 4) was 553.8 ± 124.3 mg and the “# of Toxic Deaths” value ([2]; 80 mg/kg i.p., q3d × 4) was 1. For the same compound, the “Mice with Complete Shrinkage” value ([2]; 80 mg/kg i.p., q3d × 4) was 0 and the “Mice with Partial Shrinkage” value ([2]; 80 mg/kg i.p., q3d × 4) was 0.

With `Nc1ccn([C@@H]2CO[C@H](CO)O2)c(=O)n1` [Troxacitabine, (−)-β-L-Dioxolane-Cytidine] the “Final Tumor Wt. (Mean ± SEM)” value ([1]; 10 mg/kg i.v., qd × 5) was 11.1 ± 2.1 mg, the “Mean % Tumor Shrinkage” value ([1]; 10 mg/kg i.v., qd × 5) was 77.5% and the Deaths ([1]; 10 mg/kg i.v., qd × 5) was 0. For the same compound, the “Mice with Complete Shrinkage” value ([1]; 10 mg/kg i.v., qd × 5) was 1, the “Mice with Partial Shrinkage” value ([1]; 10 mg/kg i.v., qd × 5) was 9 and the “Final Tumor Wt. (Mean ± SEM)” value ([1]; 25 mg/kg i.v., qd × 5) was 12.5 ± 1.9 mg. For the same compound, the “Mean % Tumor Shrinkage” value ([1]; 25 mg/kg i.v., qd × 5) was 72.6%, the Deaths ([1]; 25 mg/kg i.v., qd × 5) was 0 and the “Mice with Complete Shrinkage” value ([1]; 25 mg/kg i.v., qd × 5) was 1. For the same compound, the “Mice with Partial Shrinkage” value ([1]; 25 mg/kg i.v., qd × 5) was 9, the “% Tumor Growth Inhibition” value ([2]; 10 mg/kg i.v., qd × 5) was 23.9% and the “Final Tumor Wt. (Mean ± SEM)” value ([2]; 10 mg/kg i.v., qd × 5) was 872.7 ± 171.1 mg. The “# of Toxic Deaths” value ([2]; 10 mg/kg i.v., qd × 5) was 3, the “Mice with Complete Shrinkage” value ([2]; 10 mg/kg i.v., qd × 5) was 0 and the “Mice with Partial Shrinkage” value ([2]; 10 mg/kg i.v., qd × 5) was 0. The “% Tumor Growth Inhibition” value ([2]; 25 mg/kg i.v., qd × 5) was 29.7%, the “Final Tumor Wt. (Mean ± SEM)” value ([2]; 25 mg/kg i.v., qd × 5) was 813.4 ± 57.9 mg and the “# of Toxic Deaths” value ([2]; 25 mg/kg i.v., qd × 5) was 0. The “Mice with Complete Shrinkage” value ([2]; 25 mg/kg i.v., qd × 5) was 0, the “Mice with Partial Shrinkage” value ([2]; 25 mg/kg i.v., qd × 5) was 0 and the “% Toxicity” value (CCRF-CEM cells; Troxacitabine 20 nM, 72 h continuous exposure) was 0%. The “% Toxicity” value (CCRF-CEM cells; Troxacitabine 31 nM, 2 h exposure, MTT at 72 hr) was 3 ± 3%, the “% Toxicity” value (CCRF-CEM cells; Troxacitabine 62 nM, 2 h exposure, MTT at 72 hr) was 12 ± 7% and the “% Toxicity” value (CCRF-CEM cells; Troxacitabine 100 nM, 72 h continuous exposure) was 28 ± 5%. For the same compound, the “% Toxicity” value (CCRF-CEM cells; Troxacitabine 125 nM, 2 h exposure, MTT at 72 hr) was 11 ± 2%, the “% Toxicity” value (CCRF-CEM cells; Troxacitabine 250 nM, 2 h exposure, MTT at 72 hr) was 24 ± 3% and the “% Toxicity” value (CCRF-CEM cells; Troxacitabine 500 nM, 2 h exposure, MTT at 72 hr) was 34 ± 6%. For the same compound, the “% Toxicity” value (CCRF-CEM cells; Troxacitabine 500 nM, 72 h continuous exposure) was 65 ± 2%, the “% Toxicity” value (CCRF-CEM cells; Troxacitabine 2500 nM, 72 h continuous exposure) was 90 ± 2% and the “% Toxicity” value (CCRF-CEM cells; Troxacitabine 12500 nM, 72 h continuous exposure) was 98 ± 1%. For the same compound, the maximum tolerated dose [3] was “greater than 25 mg/kg”, the complete remissions [4] was 2 and the partial remissions [4] was 1. The “remission rate (complete + partial)” value [4] was 18%.
